Read-outs that look alike come from different tables or passages of the source.
Experiments:
PCSK9 [1] = target: T1, PCSK9 (Homo sapiens, UniProt Q8NBP7); assay: Fluorescence polarization competition binding assay (probe: compound of Example 57); settings: 2 μM PCSK9, 50 nM compound of Example 57 as probe, overnight incubation; read-out: FP IC
Procedure, shortened: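 Competition fluorescence-polarization binding: 2 μM PCSK9 with 50 nM fluorescent probe in 20 mM HEPES pH 7.5, 150 mM NaCl, 1 mM CaCl2, 0.005% P-20, incubated with test compound overnight in the dark. Anisotropy read; % inhibition relative to DMSO wells and probe-without-PCSK9 wells.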

[2] = target: T2, HEK293 cells stably overexpressing PCSK9 (Homo sapiens, UniProt Q8NBP7); assay: Protein degradation assay (Western Blot/Sally Sue assay); type: cell-based; settings: 24 hrs compound treatment, serum free DMEM
T2 construct: expressed in transfected cells
Procedure: Samples were run on the Sally Simple Western system from ProteinSimple (San Jose, Calif.) using default assay conditions. Briefly, 5×10^4 HEK293 cells stably overexpressing PCSK9 were seeded into Collagen I coated 96 well plates and allowed to recover overnight at 37° C. with 5% CO2. After 24 hrs of compound treatment in serum free DMEM cell culture medium, cells were washed with PBS and lysed in 100 ul RIPA buffer (Teknova) supplemented with protease inhibitors and subsequently mixed with fluorescent standards as per manufacturer's specifications, followed by denaturation at 95° C. for 5 minutes. Anti-PCSK9 mAb antibody (Abbomax, Cat. No. 601-650) was used for PCSK9 detection. The reported DC50 values represent the effective concentration of compound to lower PCSK9 protein levels, pro and mature, by 50%.

PCSK9 [3] = target: T1, PCSK9; assay: Differential scanning calorimetry (DSC) assay, direct binding / thermal stabilization of PCSK9; settings: Tm(with compound)−Tm(no compound); 2 μM PCSK9, 300 μM test compound
Procedure, shortened: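 Thermal stabilization of 2 μM PCSK9 with or without 300 μM compound in 25 mM HEPES pH 7.5, 150 mM NaCl, 1 mM CaCl2, 3.75% DMSO. Sample heated 20–80 °C at 200 °C/hr against buffer reference. Protein Tm derived from each thermogram.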

[4] = mature PCSK9 protein level lowered by 50%
[5] = pro PCSK9 protein level lowered by 50%
[6] = mature PCSK9 protein level lowered by 50%, read-out: PCSK9 DC50 (Mature)
[7] = pro PCSK9 protein level lowered by 50%, read-out: PCSK9 DC50 (Pro)

T1 sequence (Q8NBP7 153-692): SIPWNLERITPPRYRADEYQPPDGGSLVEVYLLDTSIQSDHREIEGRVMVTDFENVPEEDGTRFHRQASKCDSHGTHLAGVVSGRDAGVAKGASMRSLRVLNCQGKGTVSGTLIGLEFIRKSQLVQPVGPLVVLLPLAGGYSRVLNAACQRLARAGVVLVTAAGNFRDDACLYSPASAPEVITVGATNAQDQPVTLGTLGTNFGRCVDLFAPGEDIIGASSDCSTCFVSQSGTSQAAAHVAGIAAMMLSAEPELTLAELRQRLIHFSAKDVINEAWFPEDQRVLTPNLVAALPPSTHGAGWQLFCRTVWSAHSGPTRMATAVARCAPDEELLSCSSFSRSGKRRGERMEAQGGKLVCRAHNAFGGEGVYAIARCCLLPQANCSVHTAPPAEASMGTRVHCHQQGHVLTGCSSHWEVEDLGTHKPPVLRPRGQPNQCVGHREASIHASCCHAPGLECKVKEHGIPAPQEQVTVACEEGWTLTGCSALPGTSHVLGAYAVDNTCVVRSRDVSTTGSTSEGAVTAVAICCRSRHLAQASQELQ

| Structure (SMILES) | IC50 (PCSK9 [1]) [nM] | PCSK9 DC50 (Mature) μM [2, 4] | PCSK9 DC50 (Pro) μM [2, 5] | DC50 [2, 6] [nM] | DC50 [2, 7] [nM] | ΔTm at 300 µM (PCSK9 [3]) [°C] |
| --- | --- | --- | --- | --- | --- | --- |
| CC(C)C[C@@H](NC(=O)[C@H](O)[C@@H](N)Cc1ccccc1)C(=O)NCCOCCOc1cc2c(cc1Oc1ccc(-c3ccc(C(=O)O)cc3)c(F)c1)[C@@](C)(CC(=O)Nc1nccs1)NCC2 [Example 100, 4′-(((R)-6-(2-(2-((R)-2-((2R,3S)-3-amino-2-hydroxy-4-phenylbutanamido)-4-methylpentanamido)ethoxy)ethoxy)-1-methyl-1-(2-oxo-2-(thiazol-2-ylamino)ethyl)-1,2,3,4-tetrahydroisoquinolin-7-yl)oxy)-2′-fluoro-[1,1′-biphenyl]-4-carboxylic acid] | 96.4 | inactive | Inactive | – | – | – |
| CC(C)Cc1ccc([C@H](C)C(=O)NCCOCCOc2cc3c(cc2Oc2ccc(-c4ccc(C(=O)O)cc4)c(F)c2)[C@@](C)(CC(=O)Nc2nccs2)NCC3)cc1 [Example 108] | 578 | inactive | Inactive | – | – | – |
| CC(C)(C)OC(=O)/N=C(/NCCC[C@@H](NC(=O)OC(C)(C)C)C(=O)NCCOCCOc1cc2c(cc1Oc1ccc(-c3ccc(C(=O)O)cc3)c(F)c1)[C@@](C)(CC(=O)Nc1nccs1)NCC2)NC(=O)OC(C)(C)C [Example 106, 4′-(((R)-6-(((R,Z)-6,11-bis((tert-butoxycarbonyl)amino)-2,2-dimethyl-4,12-dioxo-3,16-dioxa-5,7,13-triazaoctadec-5-en-18-yl)oxy)-1-methyl-1-(2-oxo-2-(thiazol-2-ylamino)ethyl)-1,2,3,4-tetrahydroisoquinolin-7-yl)oxy)-2′-fluoro-[1,1′-biphenyl]-4-carboxylic acid] | 655 | – | – | 3420 | 4820 | – |
| COC(=O)c1ccc(-c2ccc(Oc3cc4c(cc3OCCOCCNC(=O)COCC(=O)N[C@H](C(=O)N3C[C@H](O)C[C@H]3C(=O)NCc3ccc(-c5scnc5C)cc3)C(C)(C)C)CCN[C@]4(C)CC(=O)Nc3nccs3)cc2F)cc1 [Example 107, methyl 2′-fluoro-4′-(((R)-6-(((S)-13-((2S,4R)-4-hydroxy-2-((4-(4-methylthiazol-5-yl)benzyl)carbamoyl)pyrrolidine-1-carbonyl)-14,14-dimethyl-7,11-dioxo-3,9-dioxa-6,12-diazapentadecyl)oxy)-1-methyl-1-(2-oxo-2-(thiazol-2-ylamino)ethyl)-1,2,3,4-tetrahydroisoquinolin-7-yl)oxy)-[1,1′-biphenyl]-4-carboxylate] | 831 | inactive | Inactive | – | – | – |
| CC(C)C[C@H](NC(=O)[C@@H](O)[C@H](N)Cc1ccccc1)C(=O)NCCOCCOCCOc1cc2c(cc1Oc1ccc(-c3ccc(C(=O)O)cc3)c(F)c1)[C@@](C)(CC(=O)Nc1nccs1)NCC2 [Example 95, 4′-(((R)-6-(((11S,14S,15R)-15-amino-14-hydroxy-11-isobutyl-10,13-dioxo-16-phenyl-3,6-dioxa-9,12-diazahexadecyl)oxy)-1-methyl-1-(2-oxo-2-(thiazol-2-ylamino)ethyl)-1,2,3,4-tetrahydroisoquinolin-7-yl)oxy)-2′-fluoro-[1,1′-biphenyl]-4-carboxylic acid] | 107 | inactive | Inactive | – | – | – |
| CC(C)(C)OC(=O)/N=C(/NCCC[C@H](NC(=O)OC(C)(C)C)C(=O)NCCOCCOCCOCCOc1cc2c(cc1Oc1ccc(-c3ccc(C(=O)O)cc3)c(F)c1)[C@@](C)(CC(=O)Nc1nccs1)NCC2)NC(=O)OC(C)(C)C [Example 99, 4′-(((R)-6-(((S,Z)-6,11-bis((tert-butoxycarbonyl)amino)-2,2-dimethyl-4,12-dioxo-3,16,19,22-tetraoxa-5,7,13-triazatetracos-5-en-24-yl)oxy)-1-methyl-1-(2-oxo-2-(thiazol-2-ylamino)ethyl)-1,2,3,4-tetrahydroisoquinolin-7-yl)oxy)-2′-fluoro-[1,1′-biphenyl]-4-carboxylic acid] | 718 | – | – | 9000 | 1370 | – |
| C[C@]1(CC(=O)Nc2nccs2)NCCc2cc(OCCOCCNC(=O)CC34CC5CC(CC(C5)C3)C4)c(Oc3ccc(-c4ccc(C(=O)O)cc4)c(F)c3)cc21 [Example 104, 4′-(((R)-6-(2-(2-(2-((3r,5r,7r)-adamantan-1-yl)acetamido)ethoxy)ethoxy)-1-methyl-1-(2-oxo-2-(thiazol-2-ylamino)ethyl)-1,2,3,4-tetrahydroisoquinolin-7-yl)oxy)-2′-fluoro-[1,1′-biphenyl]-4-carboxylic acid] | 222 | – | – | 7520 | 1530 | – |
| Cc1ncsc1-c1ccc(CNC(=O)[C@@H]2C[C@@H](O)CN2C(=O)[C@@H](NC(=O)COCCOCC(=O)NCCOCCOc2cc3c(cc2Oc2ccc(-c4ccc(C(=O)O)cc4)c(F)c2)[C@@](C)(CC(=O)Nc2nccs2)NCC3)C(C)(C)C)cc1 [Example 102, 2′-fluoro-4′-(((R)-6-(((S)-16-((2S,4R)-4-hydroxy-2-((4-(4-methylthiazol-5-yl)benzyl)carbamoyl)pyrrolidine-1-carbonyl)-17,17-dimethyl-7,14-dioxo-3,9,12-trioxa-6,15-diazaoctadecyl)oxy)-1-methyl-1-(2-oxo-2-(thiazol-2-ylamino)ethyl)-1,2,3,4-tetrahydroisoquinolin-7-yl)oxy)-[1,1′-biphenyl]-4-carboxylic acid] | 162 | inactive | Inactive | – | – | – |
| C[C@]1(CC(=O)Nc2nccs2)NCCc2cc(OCCOCCOCCOCCNC(=O)CC34CC5CC(CC(C5)C3)C4)c(Oc3ccc(-c4ccc(C(=O)O)cc4)c(F)c3)cc21 [Example 96] | 110 | – | – | 1050 | 6550 | – |
| COc1ccc(Oc2cc3c(cc2OC)CCN[C@]3(C)CC(=O)Nc2nccs2)cc1F [Example 10, (R)-2-(7-(3-fluoro-4-methoxyphenoxy)-6-methoxy-1-methyl-1,2,3,4-tetrahydroisoquinolin-1-yl)-N-(thiazol-2-yl)acetamide] | 902 | – | – | – | – | 5.55 |
| COc1cc2c(cc1Oc1ccc(-c3ccc(/C=C/C(=O)O)cc3)c(F)c1)[C@@](C)(CC(=O)Nc1nccs1)NCC2 [Example 28, (RE)-3-(2′-fluoro-4′-((6-methoxy-1-methyl-1-(2-oxo-2-(thiazol-2-ylamino)ethyl)-1,2,3,4-tetrahydroisoquinolin-7-yl)oxy)-[1,1′-biphenyl]-4-yl)acrylic acid] | 407 | – | – | – | – | 6.91 |
| C[C@]1(CC(=O)Nc2nccs2)NCCc2cc(OCC3CCCCO3)c(Oc3ccc(-c4ccc(C(=O)O)cc4)c(F)c3)cc21 (stereo partly drawn) [Example 23, 2′-fluoro-4′-(((1R)-1-methyl-1-(2-oxo-2-(thiazol-2-ylamino)ethyl)-6-((tetrahydro-2H-pyran-2-yl)methoxy)-1,2,3,4-tetrahydroisoquinolin-7-yl)oxy)-[1,1′-biphenyl]-4-carboxylic acid] | 228 | – | – | – | – | 8.71 |
| Cc1cn(-c2ccc(-c3cn(CCOc4cc5c(cc4Oc4ccc(C(=O)O)c(F)c4)[C@@](C)(CC(=O)Nc4nccs4)NCC5)nn3)cc2C)cn1 [Example 40, (R)-2-fluoro-4-((1-methyl-6-(2-(4-(3-methyl-4-(4-methyl-1H-imidazol-1-yl)phenyl)-1H-1,2,3-triazol-1-yl)ethoxy)-1-(2-oxo-2-(thiazol-2-ylamino)ethyl)-1,2,3,4-tetrahydroisoquinolin-7-yl)oxy)benzoic acid] | 302 | – | – | – | – | 6.75 |

Source: patent publication US11008313B2, “Substituted 1-methyl-1,2,3,4-tetrahydroisoquinoline molecules as PCSK9 allosteric binders” (Merck Sharp & Dohme Corp., priority 2016, dated 2021)
